The values that follow come from patent US20250066419A1 (priority 2021, published 2025).

For the substance “FITC-linker-YGRRARRRRRRIYSIKDTKLGN-biotin [CTP-SEB2]”, in the assay with dendritic cells, the “peptide permeability in DCs (peptide-FITC in CD11c+ CD80+ population)” value is “permeated a large amount of peptide”. Also, in the assay on MoDCs, the “penetration of peptide into MoDCs” value is on record as “penetrated MoDCs much more”. For the same substance, the “permeability effect (degree of fluorescent labeling of cells)” value in the assay on BMDCs was “permeability effect is greater”.
